According to US4801456A, “Growth hormone-releasing factor analogs” (International Minerals & Chemical Corp., priority 1987, dated 1989):
Square brackets hold non-standard residues; d marks the D form. Ends that are not written are not given here. Peptide text beside a SMILES is read from it. Nle = CCCC[C@H](N)C(=O)O

How the values were obtained:
[1] = tested on: rat pituitary cells in tissue culture; assay: Bioassay of hGRF analogs: GH release from cultured pituitary cells; assay type: cell-based; details: for Dose Needed to Release 2.01 μg/ml of GH (ED50 value for hGRF) / Maximum GH Released / Relative Maximum Activity (% of hGRF): from curves generated by ALLFIT; for GH release at dosages comparable to native hGRF: referring to Table 1; for Potency: (ED50 of hGRF)/(Dose required to give same response as ED50 of hGRF): relative to hGRF(1-44)-NH2 = 100
Excerpt: The assay for biological activity, which is based on the ability to stimulate release of growth hormone in rat pituitary cells in tissue culture, has been described in detail (Culler, M. D.; Kenjo, T.: Obara, N.; Arimuar, A., Stimulation of cAMP. Accumulation by Human Pancreatic GH-Releasing Factor-(1-44). Am. J. Physiol. 1984, 247 (Endocrinol.Metab.10), E609-E615.
ALLFIT, the 4-parameter logistic curve fitting program available from the Biomedical Computer Technology Information Center, Vanderbilt Medical Center, Nashville TN, was used to determine ED50 and maximal stimulated values from the data. In several instances, the amount of GH released reached a maximum value and decreased with further increasing doses of the hGRF analogs. To simplify the data analysis, these values were not used in the calculations. The calculated maximal responses, the doses of the analog required to release the amount of GH released at the ED50 of the standard (hGRF) and the potencies of the analogs relative to hGRF, are given in Table 2. Generally all novel analogs were fully active and were able to stimulate the release of growth hormone with maximal values of GH release being within 80% of the value for natural hGRF.

GH releasing activity = details: reported by Rivier et al.; cited from earlier work

Molecule: CCCC[C@H](NC(=O)[C@@H](NC(=O)[C@H](CC(N)=O)NC(=O)[C@H](CCC(N)=O)NC(=O)[C@H](CC(C)C)NC(=O)[C@H](CC(C)C)NC(=O)[C@H](CCCCN)NC(=O)[C@H](CCCNC(=N)N)NC(=O)[C@H](C)NC(=O)[C@H](CO)NC(=O)[C@H](CC(C)C)NC(=O)[C@H](CCC(N)=O)NC(=O)CNC(=O)[C@H](CC(C)C)NC(=O)[C@@H](NC(=O)[C@H](CCCCN)NC(=O)[C@H](CCCNC(=N)N)NC(=O)[C@H](Cc1ccc(O)cc1)NC(=O)[C@H](CO)NC(=O)[C@H](CC(N)=O)NC(=O)[C@@H](NC(=O)[C@H](Cc1ccccc1)NC(=O)[C@@H](NC(=O)[C@H](C)NC(=O)[C@H](CC(=O)O)NC(=O)[C@H](C)NC(=O)[C@@H](N)Cc1ccc(O)cc1)[C@@H](C)CC)[C@@H](C)O)C(C)C)[C@@H](C)CC)C(=O)N[C@@H](CO)C(=O)N[C@@H](CCCNC(=N)N)C(=O)N[C@@H](CCC(N)=O)C(=O)N[C@@H](CCC(N)=O)C(N)=O [[Asn^25,Nle^27], [Asn^25,Nle^27]-hGRF(1-31)--NH2] (H-YADAIFTNSYRKVLGQLSARKLLQNI[Nle]SRQQ-NH2)
- GH Released (mean ± (S.E.)) ([1]; Dose 1 × 10^-6 M): 3.22 (0.24) μg/mL
- GH Released (mean ± (S.E.)) ([1]; Dose 1 × 10^-7 M): 3.22 (0.09) μg/mL
- GH Released (mean ± (S.E.)) ([1]; Dose 1 × 10^-8 M): 3.10 (0.12) μg/mL
- GH Released (mean ± (S.E.)) ([1]; Dose 1 × 10^-9 M): 3.12 (0.15) μg/mL
- GH Released (mean ± (S.E.)) ([1]; Dose 1 × 10^-10 M): 1.84 (0.06) μg/mL
- GH Released (mean ± (S.E.)) ([1]; Dose 1 × 10^-11 M): 0.72 (0.05) μg/mL
- Dose Needed to Release 2.01 μg/ml of GH (ED50 value for hGRF) [1]: 0.12 nM
- Maximum GH Released [1]: 3.18 µg/mL
- Relative Maximum Activity (% of hGRF) [1]: 96%
- times more potent than hGRF(1-44)--NH2 ([1]; on a molar basis): 2.7 times
- GH release at dosages comparable to native hGRF [1]: induced GH release in dosages comparable to those for native hGRF
- Potency: (ED50 of hGRF)/(Dose required to give same response as ED50 of hGRF) [1]: 267%

Molecule: CCCC[C@H](NC(=O)[C@@H](NC(=O)[C@H](CC(N)=O)NC(=O)[C@H](CCC(N)=O)NC(=O)[C@H](CC(C)C)NC(=O)[C@H](CC(C)C)NC(=O)[C@H](CCCCN)NC(=O)[C@H](CCCNC(=N)N)NC(=O)[C@H](C)NC(=O)[C@H](CO)NC(=O)[C@H](CC(C)C)NC(=O)[C@H](CCC(N)=O)NC(=O)CNC(=O)[C@H](CC(C)C)NC(=O)[C@@H](NC(=O)[C@H](CCCCN)NC(=O)[C@H](CCCNC(=N)N)NC(=O)[C@H](Cc1ccc(O)cc1)NC(=O)[C@H](CO)NC(=O)[C@H](CC(=O)O)NC(=O)[C@@H](NC(=O)[C@H](Cc1ccccc1)NC(=O)[C@@H](NC(=O)[C@H](C)NC(=O)[C@H](CC(=O)O)NC(=O)[C@H](C)NC(=O)[C@@H](N)Cc1ccc(O)cc1)[C@@H](C)CC)[C@@H](C)O)C(C)C)[C@@H](C)CC)C(=O)N[C@@H](CO)C(=O)N[C@@H](CCCNC(=N)N)C(=O)N[C@@H](CCC(N)=O)C(=O)N[C@@H](CCC(N)=O)C(N)=O [[Asp^8,Asn^25,Nle^27], [Asp^8,Asn^25,Nle^27]-hGRF(1-31)--NH2] (H-YADAIFTDSYRKVLGQLSARKLLQNI[Nle]SRQQ-NH2)
- GH Released (mean ± (S.E.)) ([1]; Dose 1 × 10^-6 M): 2.86 (0.07) μg/mL
- GH Released (mean ± (S.E.)) ([1]; Dose 1 × 10^-7 M): 2.93 (0.17) μg/mL
- GH Released (mean ± (S.E.)) ([1]; Dose 1 × 10^-8 M): 2.86 (0.08) μg/mL
- GH Released (mean ± (S.E.)) ([1]; Dose 1 × 10^-9 M): 2.59 (0.17) μg/mL
- GH Released (mean ± (S.E.)) ([1]; Dose 1 × 10^-10 M): 0.96 (0.07) μg/mL
- GH Released (mean ± (S.E.)) ([1]; Dose 1 × 10^-11 M): 0.74 (0.09) μg/mL
- Dose Needed to Release 2.01 μg/ml of GH (ED50 value for hGRF) [1]: 0.42 nM
- Maximum GH Released [1]: 2.89 µg/mL
- Relative Maximum Activity (% of hGRF) [1]: 87%
- GH release at dosages comparable to native hGRF [1]: induced GH release in dosages comparable to those for native hGRF
- Potency: (ED50 of hGRF)/(Dose required to give same response as ED50 of hGRF) [1]: 76%

Molecule: CCCC[C@H](NC(=O)[C@@H](NC(=O)[C@H](CC(=O)O)NC(=O)[C@H](CCC(N)=O)NC(=O)[C@H](CC(C)C)NC(=O)[C@H](CC(C)C)NC(=O)[C@H](CCCCN)NC(=O)[C@H](CCCNC(=N)N)NC(=O)[C@H](C)NC(=O)[C@H](CO)NC(=O)[C@H](CC(C)C)NC(=O)[C@H](CCC(N)=O)NC(=O)CNC(=O)[C@H](CC(C)C)NC(=O)[C@@H](NC(=O)[C@H](CCCCN)NC(=O)[C@H](CCCNC(=N)N)NC(=O)[C@H](Cc1ccc(O)cc1)NC(=O)[C@H](CO)NC(=O)[C@H](CC(=O)O)NC(=O)[C@@H](NC(=O)[C@H](Cc1ccccc1)NC(=O)[C@@H](NC(=O)[C@H](C)NC(=O)[C@H](CC(=O)O)NC(=O)[C@H](C)NC(=O)[C@@H](N)Cc1ccc(O)cc1)[C@@H](C)CC)[C@@H](C)O)C(C)C)[C@@H](C)CC)C(=O)N[C@@H](CO)C(=O)N[C@@H](CCCNC(=N)N)C(=O)N[C@@H](CCC(N)=O)C(=O)N[C@@H](CCC(N)=O)C(N)=O [[Asp^8,Nle^27], [Asp^8,Nle^27]-hGRF(1-31)---NH2] (H-YADAIFTDSYRKVLGQLSARKLLQDI[Nle]SRQQ-NH2)
- GH Released (mean ± (S.E.)) ([1]; Dose 1 × 10^-6 M): 3.17 (0.24) μg/mL
- GH Released (mean ± (S.E.)) ([1]; Dose 1 × 10^-7 M): 3.52 (0.22) μg/mL
- GH Released (mean ± (S.E.)) ([1]; Dose 1 × 10^-8 M): 3.59 (0.17) μg/mL
- GH Released (mean ± (S.E.)) ([1]; Dose 1 × 10^-9 M): 2.69 (0.12) μg/mL
- GH Released (mean ± (S.E.)) ([1]; Dose 1 × 10^-10 M): 1.18 (0.10) μg/mL
- GH Released (mean ± (S.E.)) ([1]; Dose 1 × 10^-11 M): 0.61 (0.03) μg/mL
- Dose Needed to Release 2.01 μg/ml of GH (ED50 value for hGRF) [1]: 0.39 nM
- Maximum GH Released [1]: 3.60 µg/mL
- Relative Maximum Activity (% of hGRF) [1]: 109%
- GH release at dosages comparable to native hGRF [1]: induced GH release in dosages comparable to those for native hGRF
- Potency: (ED50 of hGRF)/(Dose required to give same response as ED50 of hGRF) [1]: 82%

Molecule: CC[C@H](C)[C@H](NC(=O)[C@H](C)NC(=O)[C@H](CC(=O)O)NC(=O)[C@H](C)NC(=O)[C@@H](N)Cc1ccc(O)cc1)C(=O)N[C@@H](Cc1ccccc1)C(=O)N[C@H](C(=O)N[C@@H](CC(N)=O)C(=O)N[C@@H](CO)C(=O)N[C@@H](Cc1ccc(O)cc1)C(=O)N[C@@H](CCCNC(=N)N)C(=O)N[C@@H](CCCCN)C(=O)N[C@H](C(=O)N[C@@H](CC(C)C)C(=O)NCC(=O)N[C@@H](CCC(N)=O)C(=O)N[C@@H](CC(C)C)C(=O)N[C@@H](CO)C(=O)N[C@@H](C)C(=O)N[C@@H](CCCNC(=N)N)C(=O)N[C@@H](CCCCN)C(=O)N[C@@H](CC(C)C)C(=O)N[C@@H](CC(C)C)C(=O)N[C@@H](CCC(N)=O)C(=O)N[C@@H](CC(=O)O)C(=O)N[C@H](C(=O)N[C@@H](CCSC)C(=O)N[C@@H](CO)C(=O)N[C@@H](CCCNC(=N)N)C(=O)N[C@@H](CCC(N)=O)C(=O)N[C@@H](CCC(N)=O)C(=O)NCC(=O)N[C@@H](CCC(=O)O)C(=O)N[C@@H](CO)C(=O)N[C@@H](CC(N)=O)C(=O)N[C@@H](CCC(N)=O)C(=O)N[C@@H](CCC(=O)O)C(=O)N[C@@H](CCCNC(=N)N)C(=O)NCC(=O)N[C@@H](C)C(=O)N[C@@H](CCCNC(=N)N)C(=O)N[C@@H](C)C(=O)N[C@@H](CCCNC(=N)N)C(=O)N[C@@H](CC(C)C)C(N)=O)[C@@H](C)CC)C(C)C)[C@@H](C)O [hGRF(1-44)-NH2, hGRF(1-44)--NH2, reference compound]
- GH Released (mean ± (S.E.)) ([1]; Dose 1 × 10^-6 M): 2.81 (0.13) μg/mL
- GH Released (mean ± (S.E.)) ([1]; Dose 1 × 10^-7 M): 3.17 (0.12) μg/mL
- GH Released (mean ± (S.E.)) ([1]; Dose 1 × 10^-8 M): 3.44 (0.23) μg/mL
- GH Released (mean ± (S.E.)) ([1]; Dose 1 × 10^-9 M): 2.84 (0.12) μg/mL
- GH Released (mean ± (S.E.)) ([1]; Dose 1 × 10^-10 M): 1.16 (0.04) μg/mL
- GH Released (mean ± (S.E.)) ([1]; Dose 1 × 10^-11 M): 0.73 (0.03) μg/mL
- Dose Needed to Release 2.01 μg/ml of GH (ED50 value for hGRF) [1]: 0.32 nM
- Maximum GH Released [1]: 3.31 µg/mL
- Relative Maximum Activity (% of hGRF) [1]: 100%
- Biological activity compared with natural hGRF(1-44)--NH2 ([1]; natural hGRF isolated from a human pancreatic tumor (Salk Institute standard)): identical to the natural hGRF(1-44)--NH2
- Potency: (ED50 of hGRF)/(Dose required to give same response as ED50 of hGRF) [1]: 100%

Molecule: hpGRF(1-27)--NH2 (YADAIFTNSYRKVLGQLSARKLLQDIM-NH2; UniProt P01286 32-58, looked up, fragment) [shortened GRF analog tested by Rivier et al]
- activity compared in vitro with the parent hpGRF(1-40)--OH (GH releasing activity): exhibited similar activity

Molecule: hpGRF(1-29)--NH2 (YADAIFTNSYRKVLGQLSARKLLQDIMSR-NH2; UniProt P01286 32-60, looked up, fragment) [shortened GRF analog tested by Rivier et al]
- activity compared in vitro with the parent hpGRF(1-40)--OH (GH releasing activity): exhibited similar activity

Molecule: hpGRF(1-32)--NH2 (YADAIFTNSYRKVLGQLSARKLLQDIMSRQQG-NH2; UniProt P01286 32-63, looked up, fragment) [shortened GRF analog tested by Rivier et al]
- activity compared in vitro with the parent hpGRF(1-40)--OH (GH releasing activity): exhibited similar activity

Molecule: hpGRF(1-39)--NH2 (YADAIFTNSYRKVLGQLSARKLLQDIMSRQQGESNQERG-NH2; UniProt P01286 32-70, looked up, fragment) [shortened GRF analog tested by Rivier et al]
- activity compared in vitro with the parent hpGRF(1-40)--OH (GH releasing activity): exhibited similar activity

Molecule: hpGRF(1-40)--NH2 (YADAIFTNSYRKVLGQLSARKLLQDIMSRQQGESNQERGA-NH2; UniProt P01286 32-71, looked up, fragment) [shortened GRF analog tested by Rivier et al]
- activity compared in vitro with the parent hpGRF(1-40)--OH (GH releasing activity): exhibited similar activity
